This experiment has as its system filaggrin expression in normal human keratinocytes (NHEKs). Put plainly: Filaggrin expression in normal human keratinocytes in culture (in situ immunolabelling, fluorescence relative to number of nuclei). The experiment is classed as cell-based. To be noted: for filaggrin expression, % relative to the control / change in expression of filaggrin by the keratinocytes relative to the control: NHEKs; for filaggrin expression, % relative to the control: 144 hours incubation, n=3, control complete SFM medium = 100; for change in expression of filaggrin by the keratinocytes relative to the control: 144 hours. On the procedure:
The in vitro effect of gingerone (compound 1, the chemical formula of which is given above) on keratinocyte differentiation is studied. The expression and the location of the marker of filaggrin differentiation are especially studied in keratinocytes in culture which thus makes it possible to evaluate the capacity of this compound to increase the differentiation of these cells. Normal human keratinocytes (NHEKs) were cultured at 37° C. and 5% CO2 for 24 h in a complete SFM medium until moderate confluence was obtained. A complete SFM medium is an SFM culture medium supplemented with pituitary extract (25 μg/ml), EGF (0.25 ng/ml) and gentamicin (25 μg/ml). […] The keratinocytes were then incubated for 144 hours. The treatments were carried out in triplicate (n=3). At the end of the incubation, the culture medium was removed and the cells were […], fixed, permeabilized then labelled with the primary antibody targeted against the filaggrin protein of interest (in situ immunolabelling). […] At the same time, the nuclei of the cells were stained with Hoechst 33258 (bisbenzimide). Image acquisition was carried out using an INCell AnalyzerTM1000 machine. The labels were quantified by measuring the fluorescence intensity of the proteins relative to the number of nuclei identified by the Hoechst product.

Marks after values point to notes of the source that are not given here.

Consider `[Ca+2].[Cl-].[Cl-]` [CaCl2, calcium chloride, reference compound], for which the “filaggrin expression, % relative to the control” value (1.5 mM) is given as 158** %. In addition, for the setting “calcium chloride treatment (1.5 mM in Table 1)”, the “change in expression of filaggrin by the keratinocytes relative to the control” value is “+58%”.
Consider `COc1cc(CCC(C)=O)ccc1O` [Gingerone], for which the “change in expression of filaggrin by the keratinocytes relative to the control” value is given as “+33%” (2 μg/ml) and “+51%” (20 μg/ml). Moreover, the “filaggrin expression, % relative to the control” value is reported as 133* % (2 μg/ml) and 151* % (20 μg/ml). The “effect on expression of the filaggrin protein (in words)” value (normal human epidermal keratinocytes) was “significantly and dose-dependently increases the expression of the filaggrin protein”.
For `CC1=C(/C=C/C(C)=C/C=C/C(C)=C/C(=O)O)C(C)(C)CCC1` [Retinoic acid, retinoic acid, reference compound], where the note is “10^−7 M”, the “filaggrin expression, % relative to the control” value is 3** %. For the same molecule, under “retinoic acid treatment (10^−7 M in Table 1)”, the “change in expression of filaggrin by the keratinocytes relative to the control” value was −97%.

For the origin of these results see patent US11602496B2, “Use of gingerone or derivatives thereof for reducing or delaying the signs of skin ageing” (L'OREAL, priority 2011, dated 2023).
